# Read-outs that look alike come from different tables or passages of the source.
# Columns and labels:
# [1] = Antioxidant stability under simulated digestion; format: in vitro ADME; conditions: simulated GI (gastrointestinal) digestion versus G digestion; not significant (p > 0.05)
# Description: We refer to Chai et al. and Gallego et al. methods to evaluate the antioxidant stability of AOPs at different temperatures, pH levels, and simulated digestion conditions.
# RAW264.7 cells [2] = assay: Survival of normal cells (MTS); format: cell-based; conditions: 24 h
# Experimental: Pre-cultured RAW264.7 cells were allocated into groups C, CP1, and CP2. Group C received 100 μL of complete medium, while groups CP1 and CP2 were supplemented with 100 μL of complete medium containing CP1 and CP2, respectively, at final concentrations of 1.25, 2.5, 5, 10, 20, and 40 μg/mL. The cells were then incubated for 24 h before discarding the medium. Cell viability was assessed using the MTS method to identify non-toxic concentration ranges for subsequent experiments.
# [3] = cited from earlier work; for DPPH free-radical scavenging IC50: AOPs from skipjack tuna protein extract
# Description: The virtual screening method, employing peptide affinity for Keap1 as a screening parameter, exclusively confirms the capability of CP1 to activate the Keap1/Nrf2 pathway. On the other hand, the chromatographic method, utilizing the free-radical scavenging rate as a screening metric, solely validates the ability of CP2 to scavenge free radicals. […] The chemical method for evaluating AOP antioxidant activity can be categorized into two main types: hydrogen atom transfer and electron transfer. In assays such as hydroxyl and DPPH radical scavenging, AOP transforms free radicals into anions via electron transfer. Moreover, in the lipid peroxidation inhibition assay, AOP hinders lipid peroxidation by releasing hydrogen atoms, thereby deactivating free radicals.
# [4] = cited from earlier work
# Description: AOP antioxidant activity is primarily assessed through chemical and cell modeling methods. The chemical method for evaluating AOP antioxidant activity can be categorized into two main types: hydrogen atom transfer and electron transfer. In assays such as hydroxyl and DPPH radical scavenging, AOP transforms free radicals into anions via electron transfer. Moreover, in the lipid peroxidation inhibition assay, AOP hinders lipid peroxidation by releasing hydrogen atoms, thereby deactivating free radicals.
# RAW264.7 cells [5] = conditions: MTS; for cell survival rate: mean ± SD
# Experimental: RAW264.7 cells were cultured in a 5% CO2 environment at 37 °C using a specific complete medium (DMEM (PM150210) + 10% FBS (164210-50) + 1%P/S (PB180120)) designed for RAW264.7 cells. Cells in the logarithmic growth phase were harvested and seeded into 96-well plates at a density of 1 × 10^5 cells/mL per well with 100 μL of inoculation volume. Subsequently, the plates were pre-cultured for 12 h at 37 °C in a 5% CO2 atmosphere, following which the medium was removed.
# The pre-cultured RAW264.7 cells were then divided into control (C) and model (M) groups. Then, 100 μL of complete medium was added to group C, and 100 μL of complete medium containing concentrations of 250, 300, 350, 400, and 450 μmol/L H2O2 was added to group M. After continuing the incubation for 6 h, the medium was discarded. Cell viability was assessed using the MTS method. The optimal H2O2 concentration for inducing the oxidative stress model was determined when cell viability decreased to 50%, ensuring that the cells maintained a specific viability level while meeting the damage criteria.
molecule,measurement,setting,value
H-ANNGKQWAEVF-OH [CP1],reduction of free-radical scavenging rate,[1],38.64%
same,cell viability of normal cells versus group C,"RAW264.7 cells [2]; RAW264.7, 40.00 μg/mL",significantly lower than that of group C
same,cell viability of normal cells versus group C,"RAW264.7 cells [2]; RAW264.7, 1.25 to 20.00 μg/mL",did not show a significant difference compared to group C
"EVGK [duck blood AOP, literature]",DPPH radical scavenging rate,"[3]; 0.5 mg/mL, duck blood AOP",26.63%
same,transition metal chelation rate,"[4]; 0.5 mg/mL, duck blood AOP",16.35%
"QAEP [AOP from skipjack tuna protein extract, literature]",DPPH free-radical scavenging IC50,[3],1110 µg/mL
"QEAE [AOP from skipjack tuna protein extract, literature]",DPPH free-radical scavenging IC50,[3],1770 µg/mL
"LCGEC [tuna AOP, literature]",DPPH radical scavenging rate,"[3]; 1 mg/mL, tuna AOP",16.83%
same,"DPPH radical scavenging rate, IC50",[3]; tuna AOP,exceeded 10 mg/mL
"YGPEP [sheepskin AOP, literature]",IC50 lipid peroxidation inhibition rate,[4]; sheepskin AOP,3940 µg/mL
YFLWP,IC50 DPPH radical scavenging,[3]; yellow croaker AOP,1590 µg/mL
same,IC50 hydroxyl radical scavenging,[4]; yellow croaker AOP,2470 µg/mL
"OO [Peptide H2O2, hydrogen peroxide]",cell activity,"RAW264.7 cells [5]; RAW264.7, 200 μmol/L H2O2, 6 h",exceeded 90%
same,cell survival rate,"RAW264.7 cells [5]; RAW264.7, 250 μmol/L H2O2, 6 h",83.51 ± 6.15%
same,cell survival rate,"RAW264.7 cells [5]; RAW264.7, 300 μmol/L H2O2, 6 h",79.06 ± 3.21%
same,cell survival rate,"RAW264.7 cells [5]; RAW264.7, 350 μmol/L H2O2, 6 h",64.73 ± 0.99%
same,cell survival rate,"RAW264.7 cells [5]; RAW264.7, 400 μmol/L H2O2, 6 h",48.68 ± 5.48%
same,cell survival rate,"RAW264.7 cells [5]; RAW264.7, 450 μmol/L H2O2, 6 h",26.10 ± 1.65%
H-QPGLPGPAG-OH [CP2],reduction of free-radical scavenging rate,[1],34.01%
same,cell viability of normal cells versus group C,"RAW264.7 cells [2]; RAW264.7, 40.00 μg/mL",significantly lower than that of group C
same,cell viability of normal cells versus group C,"RAW264.7 cells [2]; RAW264.7, 1.25 to 20.00 μg/mL",did not show a significant difference compared to group C
